The record followed here is US20110263509A1, “PREPARATION AND USE OF HIGH-PURITY HEMOPARATIDE (HPTH-1-37) FOR THE TREATMENT OF INFLAMMATORY SCALING DISEASES OF THE SKIN” (Haemopep Pharma GmbH, priority 2008, published 2011).

The nature of data set [1]: Stability of the active ingredient in hydrophilic ointment (cream) formulation. The format is physicochemical. The note with it: hydrophilic ointment DAB base; except for methionine-oxidized metabolites. An excerpt:
In one embodiment of the invention, the hemoparatide (hPTH-1-37) or its derivatives are used for preparing a medicament in different galenic application forms, especially as a lyophilizate. In one embodiment of this medicament, a hydrophilic ointment, especially according to the German Pharmacopoeia, is used as a galenic application base. […] These oxidized metabolites also occur as natural PTH forms in the blood plasma, but can be avoided by working under a nitrogen atmosphere, and are free from side effects, being naturally occurring endogenous derivatives.
Hemoparatide was incorporated into this base in concentrations of 0.03% by weight, 0.1% by weight and 0.3% by weight.
These oxidized metabolites also occur as natural PTH forms in the blood plasma, but can be avoided by working under a nitrogen atmosphere, and are free from side effects, being naturally occurring endogenous derivatives.

Data set [2] in a line: Solubility, dissolution time (specification). The format is physicochemical.
Data set [3] can be described thus: Storage stability of the lyophilized preparation at +4° C., HPLC comparison of fresh material and material stored nine months. The format is physicochemical. As to conditions: lyophilized form. An excerpt:
FIGS. 4A and 4B disclose HPLC chromatograms of hPTH-1-37. […] FIG. 4B is a chromatogram of hPTH-1-37 stored for nine months. […] Further, FIG. 5 discloses a comparison between the HPLC chromatograms of freshly prepared hPTH-1-37 (A) and a commercially obtainable preparation.

Data set [4] in a line: Phase I trial, tolerability of subcutaneous injection in aqueous solution. As to conditions: humans. The format is in vivo.

The structures appear in SMILES notation.

With `CC[C@H](C)[C@H](NC(=O)[C@H](CCC(=O)O)NC(=O)[C@H](CO)NC(=O)[C@@H](NC(=O)[C@@H](N)CO)C(C)C)C(=O)N[C@@H](CCC(N)=O)C(=O)N[C@@H](CC(C)C)C(=O)N[C@@H](CCSC)C(=O)N[C@@H](Cc1c[nH]cn1)C(=O)N[C@@H](CC(N)=O)C(=O)N[C@@H](CC(C)C)C(=O)NCC(=O)N[C@@H](CCCCN)C(=O)N[C@@H](Cc1c[nH]cn1)C(=O)N[C@@H](CC(C)C)C(=O)N[C@@H](CC(N)=O)C(=O)N[C@@H](CO)C(=O)N[C@@H](CCSC)C(=O)N[C@@H](CCC(=O)O)C(=O)N[C@@H](CCCNC(=N)N)C(=O)N[C@H](C(=O)N[C@@H](CCC(=O)O)C(=O)N[C@@H](Cc1c[nH]c2ccccc12)C(=O)N[C@@H](CC(C)C)C(=O)N[C@@H](CCCNC(=N)N)C(=O)N[C@@H](CCCCN)C(=O)N[C@@H](CCCCN)C(=O)N[C@@H](CC(C)C)C(=O)N[C@@H](CCC(N)=O)C(=O)N[C@@H](CC(=O)O)C(=O)N[C@H](C(=O)N[C@@H](Cc1c[nH]cn1)C(=O)N[C@@H](CC(N)=O)C(=O)N[C@@H](Cc1ccccc1)C(=O)N[C@H](C(=O)N[C@@H](C)C(=O)N[C@@H](CC(C)C)C(=O)O)C(C)C)C(C)C)C(C)C` [hPTH-1-37], the “Stability of active ingredient in formulation” value in data set [1] was “very stable”. For the same compound, in data set [2], the “Solubility, dissolution time” value is recorded as “≦2 min”. In data set [3], the “Methionine-oxidized metabolites after storage (stability)” value was “Only very small amounts of methionine-oxidized metabolites can be detected”.
For the compound `CC[C@H](C)[C@H](NC(=O)[C@H](CCC(=O)O)NC(=O)[C@H](CO)NC(=O)[C@@H](NC(=O)[C@@H](N)CO)C(C)C)C(=O)N[C@@H](CCC(N)=O)C(=O)N[C@@H](CC(C)C)C(=O)N[C@@H](CCSC)C(=O)N[C@@H](Cc1c[nH]cn1)C(=O)N[C@@H](CC(N)=O)C(=O)N[C@@H](CC(C)C)C(=O)NCC(=O)N[C@@H](CCCCN)C(=O)N[C@@H](Cc1c[nH]cn1)C(=O)N[C@@H](CC(C)C)C(=O)N[C@@H](CC(N)=O)C(=O)N[C@@H](CO)C(=O)N[C@@H](CCSC)C(=O)N[C@@H](CCC(=O)O)C(=O)N[C@@H](CCCNC(=N)N)C(=O)N[C@H](C(=O)N[C@@H](CCC(=O)O)C(=O)N[C@@H](Cc1c[nH]c2ccccc12)C(=O)N[C@@H](CC(C)C)C(=O)N[C@@H](CCCNC(=N)N)C(=O)N[C@@H](CCCCN)C(=O)N[C@@H](CCCCN)C(=O)N[C@@H](CC(C)C)C(=O)N[C@@H](CCC(N)=O)C(=O)N[C@@H](CC(=O)O)C(=O)N[C@H](C(=O)N[C@@H](Cc1c[nH]cn1)C(=O)N[C@@H](CC(N)=O)C(=O)N[C@@H](Cc1ccccc1)C(=O)N[C@H](C(=O)N[C@@H](C)C(=O)N[C@@H](CC(C)C)C(=O)O)C(C)C)C(C)C)C(C)C` [highly pure hemoparatide], the Tolerability entry in data set [4] is given as “high tolerability”. In data set [2], the “Solubility, dissolution time” value is on record as “≦2 min”. In data set [3], the “Methionine-oxidized metabolites after storage (stability)” value is reported as “only a small amount of methionine-oxidized metabolites appears”.
